# Measured values taken from US9486447B2, “Compositions and methods for controlling neuronal excitation” (The General Hospital Corporation, priority 2011, dated 2016).
# “And” between values parts separate entries of the source, which are not always exact repeats. Equal values may be shown once.
# How the values were obtained:
# Assay in all cases: NIMH PDSP binding assay
# Details in all cases: primary screening, mean of N = 4 determinations
# 5-HT1A = 5-HT1A (Homo sapiens, UniProt P08908)
# Source text: (§1) To determine if optovin's mechanism of action could be predicted via behavioral profiling^30,32, optovin's behavioral profile was compared to the behavioral profiles of 700 annotated neuroactive compounds tested in triplicate. These compounds include ligands targeting the adrenergic, serotonergic, histaminergic, dopaminergic, cholinergic and glutamatergic pathways. […] To gain insight into optovin's mechanism of action, optovin and two active optovin analogs were profiled using the National Institutes of Mental Health Psychoactive Drug Screening Program (NIMH PDSP) to determine their activities against a panel of human and rodent CNS receptors, channels and transporters.
# (§2) Activity determinations were generously provided by the National Institute of Mental Health's Psychoactive Drug Screening Program, Contract # HHSN-271-2008-00025-C(NIMH PDSP). Complete assay details are found on-line at: http://pdsp.med.unc.edu/UNC-CH %20Protocol %20Book.pdf
# 5-HT1B = 5-HT1B (Homo sapiens, UniProt P28222)
# Source text: as §1, §2
# 5-HT2A = 5-HT2A (Homo sapiens, UniProt P28223)
# Source text: as §1, §2
# 5-HT2B = 5-HT2B (Homo sapiens, UniProt P41595)
# Source text: as §1, §2
# 5-HT3 = 5-HT3 (Homo sapiens, UniProt P46098)
# Source text: as §1, §2
# 5-HT6 = 5-HT6 (Homo sapiens, UniProt P50406)
# Source text: as §1, §2
# 5-HT7 = 5-HT7 (Homo sapiens, UniProt P34969)
# Source text: as §1, §2
# 5-ht1e = 5-ht1e (Homo sapiens, UniProt P28566)
# Source text: as §1, §2
# 5-ht5a = 5-ht5a (Homo sapiens, UniProt P47898)
# Source text: as §1, §2
# A2B2 = A2B2 (Rattus norvegicus, UniProt P12389+P12390)
# Source text: as §1, §2
# A3B2 = A3B2 (Rattus norvegicus, UniProt P04757+P12390)
# Source text: as §1, §2
# A3B4 = A3B4 (Rattus norvegicus, UniProt P04757+P12392)
# Source text: as §1, §2
# A4B2 = A4B2 (Rattus norvegicus, UniProt P09483+P12390)
# Source text: as §1, §2
# A4B4 = A4B4 (Rattus norvegicus, UniProt P09483+P12392)
# Source text: as §1, §2
# Alpha1A = Alpha1A (Homo sapiens, UniProt P35348)
# Source text: as §1, §2
# Alpha1B = Alpha1B (Homo sapiens, UniProt P35368)
# Source text: as §1, §2
# Alpha1D = Alpha1D (Homo sapiens, UniProt P25100)
# Source text: as §1, §2
# Alpha2A = Alpha2A (Homo sapiens, UniProt P08913)
# Source text: as §1, §2
# Alpha2C = Alpha2C (Homo sapiens, UniProt P18825)
# Source text: as §1, §2
# Beta1 = target: T1, Beta1 (Homo sapiens, UniProt P08588)
# T1 construct: NIMH PDSP
# Source text: as §1, §2
# Beta2 = target: T2, Beta2 (Homo sapiens, UniProt P07550)
# T2 construct: NIMH PDSP
# Source text: as §1, §2
# Beta3 = target: T3, Beta3 (Homo sapiens, UniProt P13945)
# T3 construct: NIMH PDSP
# Source text: as §1, §2
# D1 = target: T4, D1 (Homo sapiens, UniProt P21728)
# T4 construct: NIMH PDSP
# Source text: as §1, §2
# D2 = target: T5, D2 (Homo sapiens, UniProt P14416)
# T5 construct: NIMH PDSP
# Source text: as §1, §2
# D3 = target: T6, D3 (Homo sapiens, UniProt P35462)
# T6 construct: NIMH PDSP
# Source text: as §1, §2
# D4 = target: T7, D4 (Homo sapiens, UniProt P21917)
# T7 construct: NIMH PDSP
# Source text: as §1, §2
# DAT = target: T8, DAT (Homo sapiens, UniProt Q01959)
# T8 construct: NIMH PDSP
# Source text: as §1, §2
# DOR = target: T9, DOR (Homo sapiens, UniProt P41143)
# T9 construct: NIMH PDSP
# Source text: as §1, §2
# GABAA = system: GABAA
# Source text: as §1, §2
# H1 = target: T10, H1 (Homo sapiens, UniProt P35367)
# T10 construct: NIMH PDSP
# Source text: as §1, §2
# H2 = target: T11, H2 (Homo sapiens, UniProt P25021)
# T11 construct: NIMH PDSP
# Source text: as §1, §2
# M1 = target: T12, M1 (Homo sapiens, UniProt P11229)
# T12 construct: NIMH PDSP
# Source text: as §1, §2
# M3 = target: T13, M3 (Homo sapiens, UniProt P20309)
# T13 construct: NIMH PDSP
# Source text: as §1, §2
# M4 = target: T14, M4 (Homo sapiens, UniProt P08173)
# T14 construct: NIMH PDSP
# Source text: as §1, §2
# M5 = target: T15, M5 (Homo sapiens, UniProt P08912)
# T15 construct: NIMH PDSP
# Source text: as §1, §2
# MOR = target: T16, MOR (Homo sapiens, UniProt P35372)
# T16 construct: NIMH PDSP
# Source text: as §1, §2
# NET = target: T17, NET (Homo sapiens, UniProt P23975)
# T17 construct: NIMH PDSP
# Source text: as §1, §2
# PBR = PBR (Rattus norvegicus, UniProt P16257)
# Source text: as §1, §2
# SERT = target: T18, SERT (Homo sapiens, UniProt P31645)
# T18 construct: NIMH PDSP
# Source text: as §1, §2
# Sigma 2 = Sigma 2 (Rattus norvegicus, UniProt Q5U3Y7)
# Source text: as §1, §2
# T12 sequence (P11229 whole entry): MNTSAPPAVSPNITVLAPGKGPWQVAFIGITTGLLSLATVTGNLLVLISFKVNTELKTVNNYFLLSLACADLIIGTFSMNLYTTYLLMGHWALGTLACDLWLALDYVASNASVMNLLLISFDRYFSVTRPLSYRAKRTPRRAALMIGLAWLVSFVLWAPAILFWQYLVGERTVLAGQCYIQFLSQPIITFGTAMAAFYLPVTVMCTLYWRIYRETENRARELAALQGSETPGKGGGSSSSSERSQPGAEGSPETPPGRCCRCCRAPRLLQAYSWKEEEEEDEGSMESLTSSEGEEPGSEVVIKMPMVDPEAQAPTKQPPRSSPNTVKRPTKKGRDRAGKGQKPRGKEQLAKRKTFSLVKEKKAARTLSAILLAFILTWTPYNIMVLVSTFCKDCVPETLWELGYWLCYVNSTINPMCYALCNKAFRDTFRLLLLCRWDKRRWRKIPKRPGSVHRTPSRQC
# Sequence of A4B2 (P09483 31-630): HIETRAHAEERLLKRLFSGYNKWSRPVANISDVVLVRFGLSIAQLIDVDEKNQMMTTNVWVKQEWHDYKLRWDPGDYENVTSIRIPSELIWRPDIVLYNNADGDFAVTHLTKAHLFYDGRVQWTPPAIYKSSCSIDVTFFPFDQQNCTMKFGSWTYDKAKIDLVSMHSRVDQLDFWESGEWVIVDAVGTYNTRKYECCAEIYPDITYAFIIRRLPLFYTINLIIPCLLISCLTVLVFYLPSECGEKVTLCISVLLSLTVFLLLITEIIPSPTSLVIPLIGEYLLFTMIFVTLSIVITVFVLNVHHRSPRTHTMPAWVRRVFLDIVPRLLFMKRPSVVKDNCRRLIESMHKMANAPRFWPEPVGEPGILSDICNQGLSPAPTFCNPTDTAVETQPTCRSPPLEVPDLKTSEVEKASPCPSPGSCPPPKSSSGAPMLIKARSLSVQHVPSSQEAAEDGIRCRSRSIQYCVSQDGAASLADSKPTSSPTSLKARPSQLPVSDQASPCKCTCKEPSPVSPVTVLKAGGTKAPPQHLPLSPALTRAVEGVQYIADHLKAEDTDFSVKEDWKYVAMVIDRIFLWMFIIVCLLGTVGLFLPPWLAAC
# Sequence of A4B2 (P12390 25-500): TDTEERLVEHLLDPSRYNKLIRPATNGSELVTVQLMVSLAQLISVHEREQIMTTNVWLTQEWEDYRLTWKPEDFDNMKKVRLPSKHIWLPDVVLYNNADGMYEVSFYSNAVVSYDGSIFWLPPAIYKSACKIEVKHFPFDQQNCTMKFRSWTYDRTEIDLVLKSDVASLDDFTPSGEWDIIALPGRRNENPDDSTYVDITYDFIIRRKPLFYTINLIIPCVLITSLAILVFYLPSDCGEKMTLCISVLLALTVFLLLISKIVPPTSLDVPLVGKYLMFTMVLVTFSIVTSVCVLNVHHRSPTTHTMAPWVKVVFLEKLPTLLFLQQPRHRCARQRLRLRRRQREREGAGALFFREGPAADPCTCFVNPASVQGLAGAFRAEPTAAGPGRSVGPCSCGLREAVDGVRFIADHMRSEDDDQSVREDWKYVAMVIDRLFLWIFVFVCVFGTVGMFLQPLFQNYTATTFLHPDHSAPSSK
# T5 sequence (P14416 whole entry): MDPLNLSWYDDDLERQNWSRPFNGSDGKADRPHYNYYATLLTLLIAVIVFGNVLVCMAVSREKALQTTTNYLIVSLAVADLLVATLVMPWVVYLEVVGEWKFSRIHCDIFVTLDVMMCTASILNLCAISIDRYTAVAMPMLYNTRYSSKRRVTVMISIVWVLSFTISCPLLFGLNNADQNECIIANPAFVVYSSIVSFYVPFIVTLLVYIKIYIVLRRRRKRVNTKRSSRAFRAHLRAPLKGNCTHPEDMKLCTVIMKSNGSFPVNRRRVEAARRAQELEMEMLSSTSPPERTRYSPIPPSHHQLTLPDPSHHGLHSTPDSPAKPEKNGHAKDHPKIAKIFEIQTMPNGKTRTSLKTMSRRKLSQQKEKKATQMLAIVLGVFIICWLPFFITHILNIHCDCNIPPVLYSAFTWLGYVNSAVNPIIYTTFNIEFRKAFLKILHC
# T11 sequence (P25021 whole entry): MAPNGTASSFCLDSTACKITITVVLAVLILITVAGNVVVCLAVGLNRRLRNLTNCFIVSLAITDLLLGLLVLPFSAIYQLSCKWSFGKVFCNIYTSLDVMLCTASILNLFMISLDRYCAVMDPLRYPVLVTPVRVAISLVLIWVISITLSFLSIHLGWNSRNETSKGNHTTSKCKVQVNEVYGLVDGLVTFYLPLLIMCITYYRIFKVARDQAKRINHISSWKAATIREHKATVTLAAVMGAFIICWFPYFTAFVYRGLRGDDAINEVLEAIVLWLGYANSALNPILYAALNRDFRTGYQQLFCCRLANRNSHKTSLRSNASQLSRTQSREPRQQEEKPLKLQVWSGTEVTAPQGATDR
# T16 sequence (P35372 whole entry): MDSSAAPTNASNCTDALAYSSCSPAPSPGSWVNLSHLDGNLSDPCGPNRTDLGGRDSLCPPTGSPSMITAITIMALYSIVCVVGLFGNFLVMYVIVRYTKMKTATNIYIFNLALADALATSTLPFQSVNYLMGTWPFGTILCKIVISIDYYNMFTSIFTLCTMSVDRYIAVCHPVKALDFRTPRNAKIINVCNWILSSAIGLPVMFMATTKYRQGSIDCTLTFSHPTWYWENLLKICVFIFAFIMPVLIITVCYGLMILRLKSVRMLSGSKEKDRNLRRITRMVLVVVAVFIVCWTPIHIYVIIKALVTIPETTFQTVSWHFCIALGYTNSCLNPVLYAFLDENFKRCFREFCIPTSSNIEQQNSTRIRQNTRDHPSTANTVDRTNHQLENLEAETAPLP
# T15 sequence (P08912 whole entry): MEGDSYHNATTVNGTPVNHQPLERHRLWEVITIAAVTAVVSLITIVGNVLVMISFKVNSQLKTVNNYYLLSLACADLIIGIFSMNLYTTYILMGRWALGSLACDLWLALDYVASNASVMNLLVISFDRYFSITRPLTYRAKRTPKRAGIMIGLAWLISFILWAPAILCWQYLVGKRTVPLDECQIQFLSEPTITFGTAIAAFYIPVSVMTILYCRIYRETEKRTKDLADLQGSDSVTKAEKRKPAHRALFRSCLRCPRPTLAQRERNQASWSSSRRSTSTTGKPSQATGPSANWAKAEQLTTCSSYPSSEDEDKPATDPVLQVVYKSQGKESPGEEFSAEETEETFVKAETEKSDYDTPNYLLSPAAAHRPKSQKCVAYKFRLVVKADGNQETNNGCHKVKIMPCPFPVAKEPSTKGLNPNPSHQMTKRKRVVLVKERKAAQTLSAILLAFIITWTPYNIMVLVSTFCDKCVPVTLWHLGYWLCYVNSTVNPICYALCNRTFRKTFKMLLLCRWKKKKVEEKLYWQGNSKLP
# T14 sequence (P08173 whole entry): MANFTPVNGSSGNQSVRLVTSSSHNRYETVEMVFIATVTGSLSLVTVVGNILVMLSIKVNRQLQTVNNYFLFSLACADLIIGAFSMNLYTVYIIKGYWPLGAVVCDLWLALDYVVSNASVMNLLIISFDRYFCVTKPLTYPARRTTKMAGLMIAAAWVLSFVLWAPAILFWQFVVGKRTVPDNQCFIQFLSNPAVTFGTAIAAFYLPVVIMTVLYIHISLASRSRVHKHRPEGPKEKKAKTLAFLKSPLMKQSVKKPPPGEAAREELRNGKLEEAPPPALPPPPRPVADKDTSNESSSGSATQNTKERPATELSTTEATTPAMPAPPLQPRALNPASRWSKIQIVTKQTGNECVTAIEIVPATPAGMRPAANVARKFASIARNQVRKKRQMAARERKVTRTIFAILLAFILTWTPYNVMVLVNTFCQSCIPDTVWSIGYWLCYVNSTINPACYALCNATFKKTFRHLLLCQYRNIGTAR
# Sequence of 5-ht1e (P28566 whole entry, species assumed): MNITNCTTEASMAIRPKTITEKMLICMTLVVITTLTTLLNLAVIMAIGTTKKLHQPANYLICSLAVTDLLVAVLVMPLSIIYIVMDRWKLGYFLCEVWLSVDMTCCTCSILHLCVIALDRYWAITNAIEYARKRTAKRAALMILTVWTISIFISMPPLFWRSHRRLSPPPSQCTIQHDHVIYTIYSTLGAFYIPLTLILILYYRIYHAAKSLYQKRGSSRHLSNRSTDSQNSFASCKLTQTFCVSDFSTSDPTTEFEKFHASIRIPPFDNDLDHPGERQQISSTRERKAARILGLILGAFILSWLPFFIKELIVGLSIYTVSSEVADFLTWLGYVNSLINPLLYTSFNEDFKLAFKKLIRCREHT
# Sequence of 5-HT1B (P28222 whole entry, species assumed): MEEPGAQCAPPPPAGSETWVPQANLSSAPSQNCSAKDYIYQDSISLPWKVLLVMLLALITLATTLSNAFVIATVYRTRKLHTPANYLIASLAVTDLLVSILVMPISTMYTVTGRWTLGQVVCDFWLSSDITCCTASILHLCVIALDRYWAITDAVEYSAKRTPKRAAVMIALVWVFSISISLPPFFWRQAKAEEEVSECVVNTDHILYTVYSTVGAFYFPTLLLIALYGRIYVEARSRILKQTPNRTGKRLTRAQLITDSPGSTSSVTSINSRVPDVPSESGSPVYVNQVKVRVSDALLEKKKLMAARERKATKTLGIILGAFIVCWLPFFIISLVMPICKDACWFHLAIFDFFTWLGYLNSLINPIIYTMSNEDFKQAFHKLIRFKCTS
# Sequence of Alpha2C (P18825 whole entry): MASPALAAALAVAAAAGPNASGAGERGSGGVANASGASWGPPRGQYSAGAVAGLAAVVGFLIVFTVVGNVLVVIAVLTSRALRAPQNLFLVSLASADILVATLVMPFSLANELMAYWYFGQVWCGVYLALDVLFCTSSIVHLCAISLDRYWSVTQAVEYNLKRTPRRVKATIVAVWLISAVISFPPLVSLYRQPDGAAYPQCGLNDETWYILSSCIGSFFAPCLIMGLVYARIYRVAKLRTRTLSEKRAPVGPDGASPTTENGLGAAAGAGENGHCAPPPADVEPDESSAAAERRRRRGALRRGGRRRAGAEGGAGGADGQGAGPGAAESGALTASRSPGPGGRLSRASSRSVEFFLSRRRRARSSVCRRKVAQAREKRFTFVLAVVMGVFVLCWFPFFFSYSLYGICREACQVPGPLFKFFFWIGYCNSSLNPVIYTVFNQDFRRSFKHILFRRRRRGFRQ
smiles,measurement,setting,value
Cc1cc(/C=C2/SC(=S)NC2=O)c(C)n1-c1cccnc1 [optovin],Avg % inhibition (5-HT1A),5-HT1A,6.7%
same,Avg % inhibition (5-HT1B),5-HT1B,11.8%
same,Avg % inhibition (5-HT2A),5-HT2A,−1.1%
same,Avg % inhibition (5-HT2B),5-HT2B,−2.0%
same,Avg % inhibition (5-HT3),5-HT3,−1.7%
same,Avg % inhibition (5-HT6),5-HT6,−16.5%
same,Avg % inhibition (5-HT7),5-HT7,−0.8%
same,Avg % inhibition (5-ht1e),5-ht1e,−21.5%
same,Avg % inhibition (5-ht5a),5-ht5a,−17.7%
same,Avg % inhibition (A2B2),A2B2,−19.2%
same,Avg % inhibition (A3B2),A3B2,−5.6%
same,Avg % inhibition (A3B4),A3B4,−12.5%
same,Avg % inhibition (A4B2),A4B2,−26.8%
same,Avg % inhibition (A4B2**),A4B2,−29.1%
same,Avg % inhibition (A4B4),A4B4,−8.8%
same,Avg % inhibition (Alpha1A),Alpha1A,−5.4%
same,Avg % inhibition (Alpha1B),Alpha1B,7.2%
same,Avg % inhibition (Alpha1D),Alpha1D,30.4%
same,Avg % inhibition (Alpha2A),Alpha2A,40.5%
same,Avg % inhibition (Alpha2C),Alpha2C,3.3%
same,Avg % inhibition (Beta1),Beta1,19.4%
same,Avg % inhibition (Beta2),Beta2,−3.8%
same,Avg % inhibition (Beta3),Beta3,20.2%
same,Avg % inhibition (D1),D1,9.0%
same,Avg % inhibition (D2),D2,−6.8%
same,Avg % inhibition (D3),D3,34.3%
same,Avg % inhibition (D4),D4,0.2%
same,Avg % inhibition (DAT),DAT,1.5%
same,Avg % inhibition (DOR),DOR,−7.2%
same,Avg % inhibition (GABAA),GABAA,−2.2%
same,Avg % inhibition (H1),H1,1.1%
same,Avg % inhibition (H2),H2,41.1%
same,Avg % inhibition (M1),M1,32.9% and 16.9%
same,Avg % inhibition (M3),M3,9.1%
same,Avg % inhibition (M4),M4,3.5%
same,Avg % inhibition (M5),M5,3.7%
same,Avg % inhibition (MOR),MOR,−0.7%
same,Avg % inhibition (NET),NET,−1.3%
same,Avg % inhibition (PBR),PBR,−11.3%
same,Avg % inhibition (SERT),SERT,75.8%
same,Avg % inhibition (Sigma 2),Sigma 2,16.0%
